Test results taken from patent publication US20260364028A1, “COMBINATION TREATMENTS FOR DEPRESSION AND OTHER DISORDERS” (NEURAWELL THERAPEUTICS, priority 2023, published 2026).
Where two headings read alike, the source gives them in different places.

What was measured:
[1] = test system: tyramine pressor response; conditions: cited from earlier work; for TSF High / TSF Low: literature-reported
[2] = test system: systolic or diastolic blood pressure; conditions: cited from earlier work
[3] = plasma, cited from earlier work
Monoamine Oxidase MAO-A = biological target: T1, Monoamine Oxidase MAO-A (Homo sapiens, UniProt P21397); test: Monoamine oxidase MAO-A inhibition enzyme assay (kynuramine, spectrofluorimetric); type: biochemical; conditions: for interference with the inhibition of MAO-A by phenelzine (in words): beta blocker in presence of phenelzine […] nM and 150 nM; for inhibition at 2 µM / inhibitory activity of MAO-A (in words): beta blocker alone; for inhibitory activity of MAO-A (in words): significant = ≥50% inhibition
T1 construct: host or cells: insect cells (recombinant)
T1 sequence (P21397 1-527): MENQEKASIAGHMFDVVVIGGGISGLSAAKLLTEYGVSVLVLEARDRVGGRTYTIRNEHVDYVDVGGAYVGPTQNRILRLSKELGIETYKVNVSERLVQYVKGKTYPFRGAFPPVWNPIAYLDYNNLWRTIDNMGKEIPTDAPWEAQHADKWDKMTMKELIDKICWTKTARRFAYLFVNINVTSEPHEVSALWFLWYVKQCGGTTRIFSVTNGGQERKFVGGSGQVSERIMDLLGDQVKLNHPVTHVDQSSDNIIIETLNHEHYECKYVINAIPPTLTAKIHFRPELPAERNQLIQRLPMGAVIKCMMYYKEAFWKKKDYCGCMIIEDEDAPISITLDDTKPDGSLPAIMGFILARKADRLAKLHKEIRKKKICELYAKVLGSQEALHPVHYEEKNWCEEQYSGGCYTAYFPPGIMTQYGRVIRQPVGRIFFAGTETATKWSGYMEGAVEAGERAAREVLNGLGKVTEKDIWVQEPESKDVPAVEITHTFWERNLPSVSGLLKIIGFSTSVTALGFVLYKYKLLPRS

Monoamine Oxidase MAO-B = biological target: T2, Monoamine Oxidase MAO-B (Homo sapiens, UniProt P27338); test: Monoamine oxidase MAO-B inhibition enzyme assay (kynuramine, spectrofluorimetric); type: biochemical; conditions: for inhibition at 2 µM: read-out: % MAO-B inhibition
T2 construct: host or cells: insect cells (recombinant)
T2 sequence (P27338 1-520): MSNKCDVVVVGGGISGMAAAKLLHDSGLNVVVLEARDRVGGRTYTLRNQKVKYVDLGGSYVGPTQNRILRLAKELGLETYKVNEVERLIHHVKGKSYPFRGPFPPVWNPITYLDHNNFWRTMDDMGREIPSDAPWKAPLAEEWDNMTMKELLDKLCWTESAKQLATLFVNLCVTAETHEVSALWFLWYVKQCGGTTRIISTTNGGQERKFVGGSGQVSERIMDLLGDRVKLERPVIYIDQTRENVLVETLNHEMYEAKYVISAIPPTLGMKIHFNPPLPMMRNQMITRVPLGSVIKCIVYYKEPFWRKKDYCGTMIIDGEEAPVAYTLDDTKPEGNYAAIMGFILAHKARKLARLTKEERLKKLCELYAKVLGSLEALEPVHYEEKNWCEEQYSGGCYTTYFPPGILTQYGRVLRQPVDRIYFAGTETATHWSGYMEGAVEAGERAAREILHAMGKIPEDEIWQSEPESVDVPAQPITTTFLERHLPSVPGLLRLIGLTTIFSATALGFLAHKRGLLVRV

depression = conditions: meta-analysis of 14 antidepressants and placebo; cited from earlier work
[4] = typical circumstances, no MAO inhibition; cited from earlier work
[5] = Tranylcypromine 20 mg/d with placebo (no beta blocker)
[6] = Phenelzine 60 mg/d with placebo (no beta blocker)
[7] = Selegiline 10 mg/d with placebo (no beta blocker)

| Structure (SMILES) | half-life [3] | interference with the inhibition of MAO-A by phenelzine (in words) (Monoamine Oxidase MAO-A) | inhibition at 2 µM (Monoamine Oxidase MAO-A; role: inhibitor) [%] | inhibitory activity of MAO-A (in words) (Monoamine Oxidase MAO-A; role: inhibitor) | inhibitory activity of MAO-B (in words) (Monoamine Oxidase MAO-B) | interference with the inhibition of MAO-B by phenelzine (in words) (Monoamine Oxidase MAO-B) | inhibition at 2 µM (Monoamine Oxidase MAO-B) [%] | other results |
| --- | --- | --- | --- | --- | --- | --- | --- | --- |
| N[C@@H]1C[C@H]1c1ccccc1 (relative stereo) [Tranylcypromine] | approximately 2.5 hours | – | – | – | – | – | – | TSF High [1, 5]: 55; TSF Low [1, 5]: 30; TSF ([1]; tranylcypromine at 20 mg/day): 55; patients with significant transient blood pressure increases (20 mmHg or more) immediately after taking [2]: approximately 50% |
| CC(C)NCC(O)COc1ccc(COCCOC(C)C)cc1 (centres unmarked) [Bisoprolol] | 9 to 12 h | no interference was observed | -5 | no significant inhibitory activity | no significant inhibitory activity | no interference was observed | 13 | – |
| COc1ccccc1OCCNCC(O)COc1cccc2[nH]c3ccccc3c12 (centres unmarked) [Carvedilol] | – | no interference was observed | 4 | no significant inhibitory activity | no significant inhibitory activity | no interference was observed | 23 | – |
| COC(=O)CCc1ccc(OCC(O)CNC(C)C)cc1 (centres unmarked) [Esmolol] | approximately 9 minutes | – | – | – | – | – | – | – |
| Cc1cc(C(=O)NNCc2ccccc2)no1 [Isocarboxazide] | – | – | – | – | – | – | – | % MAO-A inhibition (Monoamine Oxidase MAO-A; role: inhibitor, isocarboxazid 10 μM): 91%; % MAO-B inhibition (Monoamine Oxidase MAO-B): 98% |
| NNCCc1ccccc1 [Phenelzine] | approximately 11.6 hours | – | – | – | – | – | – | TSF High [1, 6]: 30; TSF Low [1, 6]: 9; TSF ([1]; phenelzine at 45 mg/day): 13.3; patients with significant transient blood pressure increases (20 mmHg or more) immediately after taking [2]: approximately 50%; efficacy compared to all other treatments (in words) (depression): superior efficacy compared to all other treatments |
| CC(C)NCC(O)COc1cccc2[nH]ccc12 (centres unmarked) [Pindolol, 1-(Indol-4-yloxy)-3-(isopropylamino)-2-propanol] | 3 to 4 h | no interference was observed | -1 | no significant inhibitory activity | no significant inhibitory activity | no interference was observed | -5 | – |
| C#CCN(C)[C@H](C)Cc1ccccc1 [Selegiline] | – | – | – | – | – | – | – | TSF High [1, 7]: 4; TSF Low [1, 7]: 3; half-life ([3]; human): approximately 10 hours |
| NCCc1ccc(O)cc1 [tyramine] | – | – | – | – | – | – | – | dietary tyramine ending up in systemic circulation [4]: less than 1% |
